Laboratory results from US20220409554A1, “ASCORBIC ACID AND QUINONE COMPOUND FOR CANCER TREATMENT” (IC-MedTech Corp., priority 2021, published 2022).
pIC50: −log10 of the molar value. Read-outs that look alike come from different tables or passages of the source.

Legend:
Assay type in all cases: cell-based
[1] = test system: Normal colon epithelial cells (FHC); test: Antiproliferative activity, CELLTITER-GLO luminescent cell viability assay; conditions: combination of vitamin C and compound A6 (weight ratio 100:1), concentration of the named component
Method: (§1) The antiproliferative activity of vitamin C (L-ascorbic acid) and/or compound A6 was determined in Colon26 (colon cancer), GS9L (glioblastoma), Jurkat (leukemia), MCF7 (breast cancer), and U87MG (glioblastoma). Jurkat cells were cultured in RPMI-1640 medium supplemented with 10% heat-inactivated fetal bovine serum (FBS), penicillin (100 U/mL), and streptomycin (100 μg/mL). Normal lymphocytes were cultured in the same medium supplemented with 10% FBS only. Adhesive cancer cell lines (Colon26, GS9L, MCF7, and U87MG) were cultured in DMEM supplemented with 10% FBS, penicillin (100 U/mL), and streptomycin (100 μg/mL). Adhesive non-cancer cell lines, FHC and MCF10A, were cultured in DMEM-F12 and DMEM, respectively, each supplemented with 10% FBS and growth factors. EOC2 cells were cultured in DMEM supplemented with 10% FBS. All cells were cultured in a humidified atmosphere containing 5% CO2 at 37° C. The adhesive cells were released using a trypsin-EDTA solution (0.05% of trypsin/EDTA) and subsequently washed with PBS. The cells were collected by centrifugation (1,000×g/10 min for leukemia lymphocytes; 1,500×g/15 min for normal lymphocytes; and 800×g/5 min for adhesive cells) and placed in a fresh medium without antibiotics and growth factors prior to treatment with vitamin C and/or compound A6. The cells (1×10^6 cells/mL for non-adhesive and 3×10^5 cells/mL for adhesive) were incubated with vitamin C and/or compound A6 for different time intervals in a cell incubator. At each time interval, aliquots were removed for analyses. For other cell lines, cell proliferation and viability were analyzed using the CELLTITER-GLO luminescent cell viability assay. Briefly, 100 μL aliquots of a cell suspension were placed in a well of a 96-well plate and incubated with vitamin C and/or compound A6 for 24 and 48 h in a humidified atmosphere containing 5% CO2 at 37° C. The CELLTITER-GLO reagent containing luciferin and luciferase (100 μL) was added to each well, followed by incubation. The luminescence produced by the luciferase-catalyzed conversion of luciferin into oxyluciferin by living cells was detected using a microplate reader in a chemiluminescent mode.

[2] = test system: Normal breast epithelial cells (MCF10A); test: as above; conditions: Homo sapiens, MCF-10A, combination of vitamin C and compound A6 (weight ratio 100:1), concentration of the named component
Method: as §1

[3] = test system: Breast cancer cells (MCF7); test: as above; conditions: Homo sapiens, combination of vitamin C and compound A6 (weight ratio 100:1), concentration of the named component
Method: as §1

[4] = test system: Human glioblastoma cells (U87MG); test: as above; conditions: U-87 MG, combination of vitamin C and compound A6 (weight ratio 100:1), concentration of the named component
Method: as §1

[5] = test system: Colon cancer cells (Colon 26); test: as above; conditions: Mus musculus; for IC50: Colon26, compound alone, read-out: IC50 (μM) Colon26; for pIC50: combination of vitamin C and compound A6 (weight ratio 100:1), concentration of the named component, read-out: IC50
Method: as §1

Normal microglial cells = test: as above; conditions: combination of vitamin C and compound A6 (weight ratio 100:1), concentration of the named component
Method: as §1

[6] = test system: Lymphoma B lymphocytes (Raji); test: Antiproliferative activity, trypan blue staining and automated counting; conditions: Homo sapiens; for pIC50: combination of vitamin C and compound A6 (weight ratio 100:1), concentration of the named component, read-out: IC50; for IC50: compound alone, read-out: IC50 (μM) Raji
[7] = test system: Leukemia T lymphocytes (Jurkat); test: as above; conditions: Homo sapiens; for pIC50: combination of vitamin C and compound A6 (weight ratio 100:1), concentration of the named component, read-out: IC50; for IC50: compound alone, read-out: IC50 (μM) Jurkat
Method: (§2) The antiproliferative activity of vitamin C (L-ascorbic acid) and/or compound A6 was determined in Colon26 (colon cancer), GS9L (glioblastoma), Jurkat (leukemia), MCF7 (breast cancer), and U87MG (glioblastoma). Jurkat cells were cultured in RPMI-1640 medium supplemented with 10% heat-inactivated fetal bovine serum (FBS), penicillin (100 U/mL), and streptomycin (100 μg/mL). Normal lymphocytes were cultured in the same medium supplemented with 10% FBS only. Adhesive cancer cell lines (Colon26, GS9L, MCF7, and U87MG) were cultured in DMEM supplemented with 10% FBS, penicillin (100 U/mL), and streptomycin (100 μg/mL). Adhesive non-cancer cell lines, FHC and MCF10A, were cultured in DMEM-F12 and DMEM, respectively, each supplemented with 10% FBS and growth factors. EOC2 cells were cultured in DMEM supplemented with 10% FBS. All cells were cultured in a humidified atmosphere containing 5% CO2 at 37° C. The adhesive cells were released using a trypsin-EDTA solution (0.05% of trypsin/EDTA) and subsequently washed with PBS. The cells were collected by centrifugation (1,000×g/10 min for leukemia lymphocytes; 1,500×g/15 min for normal lymphocytes; and 800×g/5 min for adhesive cells) and placed in a fresh medium without antibiotics and growth factors prior to treatment with vitamin C and/or compound A6. The cells (1×10^6 cells/mL for non-adhesive and 3×10^5 cells/mL for adhesive) were incubated with vitamin C and/or compound A6 for different time intervals in a cell incubator. At each time interval, aliquots were removed for analyses. For lymphocytes, cell proliferation and viability were analyzed by trypan blue staining and automated counting using a COUNTESS automated cell counter. Briefly, 10 μL of trypan blue (0.4%) was added to 10 μL of a cell suspension and incubated for 30 s, and 10 μL of the cell suspension was placed in a COUNTESS glass chamber. The numbers of live and dead cells in the suspension were counted automatically. The linear range of operation with the automated cell counter was 1×10^4-5×10^6 cells/mL, and the optimal cell size was in the range of […].

Normal lymphocytes = test: as above; conditions: Lymphocyte, combination of vitamin C and compound A6 (weight ratio 100:1), concentration of the named component
Method: as §2

Row | Compound | pIC50 [1] | pIC50 [2] | pIC50 [3] | pIC50 [4] | IC50 [5] | pIC50 [5] | pIC50 (Normal microglial cells) | pIC50 [6] | IC50 [6] | pIC50 [7] | IC50 [7] | pIC50 (Normal lymphocytes)
1 | O=C1O[C@H]([C@@H](O)CO)C(O)=C1O [Vitamin C, L-ascorbic acid] | < 4.70 | < 4.70 | 5.46 | 4.96 | > 2000 µM | 5.32 | < 4.70 | 5.30 | > 2000 µM | 5.52 | 2000 µM | < 4.70
2 | COC1=C(OC)C(=O)C(C)=CC1=O [Compound A6, 2,3-dimethoxy-5-methyl-1,4-benzoquinone] | < 2.70 | < 2.70 | 3.46 | 2.96 | > 20 µM | 3.32 | < 2.70 | 3.30 | > 20 µM | 3.52 | 5 µM | < 2.70
